The values below come from patent US20030225132A1, “Estrogen receptor modulators” (priority 2002, published 2003).

The subject of the experiment is MCF-7 cells. Put plainly: MCF-7 Estrogen Dependent Proliferation Assay. Format: cell-based. As to conditions: Homo sapiens, MCF7; added to Estrogen Depleted Media (EDM); read-out: EC50 of stimulation of growth of MCF-7 cells. An excerpt:
MCF-7 Estrogen Dependent Proliferation Assay MCF-7 cells (ATCC #HTB-22) are human mammary gland adenocarcinoma cells that require estrogen for growth. The growth media (GM) for the MCF-7 cells is Minimum Essential Media (without phenol red) supplemented with fetal bovine serum ([…]) to 10%. The PBS serves as the sole source of estrogen and this GM supports the full growth of the cells and is used for the routine growth of the cell cultures. When MCF-7 cells are placed in a media in which 10% Charcoal-Dextran treated fetal bovine serum (CD-FBS) is substituted for PBS, the cells will cease to divide but will remain viable. […] The addition of estradiol to EDM stimulates the growth of the MCF-7 cells in a dose dependent manner with an EC50 of 2 pM. Growing MCF-7 cells are washed several times with EDM and the cultures then maintained in EDM for a minimum of 6 days in order to deplete the cells of endogenous estrogen. […] At this point, the culture supernatants are aspirated, the cells washed 2× with PBS, the wash solution aspirated and the protein content of each well determined. Each drug dilution is evaluated on a minimum of 5 wells and the range of dilution of the test compounds in the assay is 0.001 nM to 1000 nM. […] The assay is terminated at day 8-10 when the appropriate controls reach 80-90% confluency and the protein content of each well is determined as above.

Usually EC50 stands for the concentration giving half of the maximal effect. With `C[C@]12CC[C@@H]3c4ccc(O)cc4CC[C@H]3[C@@H]1CC[C@@H]2O` [estradiol], the EC50 was 2 pM.
